Source: paper PMC10180076, “Novel Biologically Active N-Substituted Benzimidazole Derived Schiff Bases: Design, Synthesis, and Biological Evaluation” (Molecules, 2023)
Where two headings read alike, the source gives them in different places.

Assays:
[1] = system: NCI-H460, lung carcinoma; experiment: Proliferation assay (MTS, 72 h), NCI-H460; format: cell-based, human
Source text: (§1) Human cancer cells used in this manuscript, namely Capan-1, HCT-116, NCI-H460, LN-229, HL-60, K-562, and Z-138, were acquired from the American Type Culture Collection (ATCC, Manassas, VA, USA), while the DND-41 cell line was purchased from the Deutsche Sammlung von Mikroorganismen und Zellkulturen (DSMZ Leibniz-Institut, Braunschweig, Germany). Culture media were purchased from Gibco Life Technologies, Merelbeke, Belgium, and supplemented with 10% fetal bovine serum (HyClone, Cytiva, Marlborough, MA, USA). Vincristine and docetaxel, which were used as the reference inhibitors, were purchased from Selleckchem (Munich, Germany). Stock solutions were prepared in DMSO.
(§2) Adherent cell lines LN-229, HCT-116, and NCI-H460 and Capan-1 cells were seeded at a density between 500 and 1500 cells per well, in 384-well tissue culture plates (Greiner, Kremsmünster, Austria). After overnight incubation, the cells were treated with seven different concentrations of the test compounds, ranging from 100 to 0.006 µM.
(§3) Suspension cell lines HL-60, K-562, Z-138, and DND-41 were seeded at densities ranging from 2500 to 5500 cells per well in 384-well culture plates containing the test compounds at the same concentration points. The cells were incubated for 72 h with the compounds and were then analyzed using the CellTiter 96® AQueous One Solution Cell Proliferation Assay (MTS) reagent (Promega, Madison, WI, USA) according to the manufacturer’s instructions. […] The compounds were tested in two independent experiments.

[2] = system: HL-60, acute myeloid leukemia; experiment: Proliferation assay (MTS, 72 h), HL-60; format: cell-based, human
Source text: as §1, §2, §3

[3] = system: LN-229, glioblastoma; experiment: Proliferation assay (MTS, 72 h), LN-229; format: cell-based, human
Source text: as §1, §2, §3

[4] = system: DND-41, acute lymphoblastic leukemia; experiment: Proliferation assay (MTS, 72 h), DND-41; format: cell-based, human
Source text: as §1, §2, §3

[5] = system: Z-138, non-Hodgkin lymphoma; experiment: Proliferation assay (MTS, 72 h), Z-138; format: cell-based, human
Source text: as §1, §2, §3

[6] = system: Capan-1, pancreatic adenocarcinoma; experiment: Proliferation assay (MTS, 72 h), Capan-1; format: cell-based, human
Source text: as §1, §2, §3

[7] = system: HCT-116, colorectal carcinoma; experiment: Proliferation assay (MTS, 72 h), HCT-116; format: cell-based, human
Source text: as §1, §2, §3

[8] = system: K-562, chronic myeloid leukemia; experiment: Proliferation assay (MTS, 72 h), K-562; format: cell-based, human
Source text: as §1, §2, §3

Compound	IC50 ([1]; Homo sapiens, NCI-H460)	IC50 ([2]; Homo sapiens, HL-60)	IC50 ([3]; Homo sapiens, LN-229)	IC50 ([4]; Homo sapiens, DND41)	melting point	IC50 ([5]; Homo sapiens, Z-138)	IC50 ([6]; Homo sapiens, CAPAN-1)	IC50 ([7]; Homo sapiens, HCT-116)	IC50 ([8]; Homo sapiens, K562)	IC50 [1]	IC50 [2]	IC50 [3]	IC50 [4]	IC50 [5]	IC50 [6]	IC50 [7]	IC50 [8]
CN(C)c1ccc(/C=N/c2nc3ccccc3n2C)cc1 [Compound 33, (E)-N,N-Dimethyl-4-(((1-methyl-1H-benzo[d]imidazol-2-yl)imino)methyl)aniline]	> 100 µM	> 100 µM	> 100 µM	> 100 µM	186 to 188 °C	> 100 µM	> 100 µM	> 100 µM	> 100 µM								
CCCCCCn1c(/N=C/c2ccc(N(CC)CC)cc2O)nc2ccccc21 [Compound 44, (E)-5-(Diethylamino)-2-(((1-hexyl-1H-benzo[d]imidazol-2-yl)imino)methyl)phenol]	> 100 µM	83.9 µM	> 100 µM	> 100 µM	201 to 204 °C	> 100 µM	> 100 µM	> 100 µM	> 100 µM								
2-amino-6-cyano-1-isobutylbenzimidazole [Compound 21]										69.2 µM	> 100 µM	> 100 µM	> 100 µM	> 100 µM	> 100 µM	> 100 µM	> 100 µM
CCCCCCn1c(N)nc2ccccc21 [Compound 20, 2-amino-1-hexylbenzimidazole]					245 to 250 °C												
CCN(CC)c1ccc(/C=N/c2nc3ccccc3n2CC(C)C)c(O)c1 [Compound 30, (E)-5-(Diethylamino)-2-(((1-isobutyl-1H-benzo[d]imidazol-2-yl)imino)methyl)phenol]	> 100 µM	70.4 µM	> 100 µM	> 100 µM		> 100 µM	> 100 µM	> 100 µM	> 100 µM								
2-amino-1-phenylbenzimidazole [Compound 19]										> 100 µM	> 100 µM	> 100 µM	98.3 µM	> 100 µM	> 100 µM	> 100 µM	> 100 µM
COC(=O)Nc1nc2ccc(C(=O)c3cccs3)cc2[nH]1 [NZO, nocodazole, reference compound]	0.25 µM	0.1 µM	0.29 µM	0.47 µM		0.31 µM	0.1 µM	0.13 µM	0.07 µM								
COc1cc([C@@H]2c3cc4c(cc3[C@@H](O[C@@H]3O[C@@H]5CO[C@@H](C)O[C@H]5[C@H](O)[C@H]3O)[C@H]3COC(=O)[C@H]23)OCO4)cc(OC)c1O [ETP, etoposide, reference compound]	3.65 µM	0.42 µM	2.4 µM	2.8 µM		0.85 µM	0.43 µM	1.45 µM	1.77 µM								
CCCCCCn1c(N)nc2ccc(C#N)cc21 [Compound 24, 2-Amino-6-cyano-1-hexylbenzimidazole]					215 to 220 °C												
CCN(CC)c1ccc(/C=N/c2nc3ccccc3n2C)c(O)c1 [Compound 35, (E)-5-(Diethylamino)-2-(((1-methyl-1H-benzo[d]imidazol-2-yl)imino)methyl)phenol]	> 100 µM	> 100 µM	> 100 µM	> 100 µM		> 100 µM	> 100 µM	> 100 µM	> 100 µM								
CCCCCCn1c(/N=C/c2ccc(N(CC)CC)cc2O)nc2ccc(C#N)cc21 [Compound 45, (E)-2-((4-(Diethylamino)-2-hydroxybenzylidene)amino)-1-hexyl-1H-benzo[d]imidazole-6-carbonitrile]	> 100 µM	> 100 µM	> 100 µM	> 100 µM		> 100 µM	> 100 µM	> 100 µM	> 100 µM								
